In PubChem BioAssay (NCI) one finds GI50 and TGI data, which are given here for 9 compounds.

Test systems include SN12C renal; SR leukemia; HCC-2998 colon; SK-MEL-5 melanoma; MALME-3M melanoma; HCT-15 colon; SF-268 CNS; HL-60(TB) leukemia; NCI-H460 lung; HOP-92 NSCLC.
What all share (assay): NCI-60 cell line screen, 48 h

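Cultured in 96-well plates, cells were exposed to test compound for 48 hours across five concentrations. Here, GI50 denotes the concentration required for 50% inhibition of growth. TGI is the concentration that stops growth completely.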

On to `COC(=O)[C@]12CC[C@@H](C)[C@H](C)[C@@H]1C1=CC[C@@H]3[C@@]4(C)C(C=O)=C[C@@](C)(COC(=O)/C=C/c5ccccc5)[C@@H]4[C@H](O)C[C@@]3(C)[C@]1(C)CC2`, for which the GI50 is 3.8 µM in the test with SN12C renal; 2.29 µM with SR leukemia; 3.04 µM with HCC-2998 colon; 2.2 µM with SK-MEL-5 melanoma; 1.99 µM with MALME-3M melanoma; 2.2 µM in the test on HCT-15 colon. The GI50 with SF-268 CNS was 3.43 µM; in the test with HL-60(TB) leukemia, 2.48 µM; in the test on NCI-H460 lung, 2.96 µM; with HOP-92 NSCLC, 2.19 µM. In addition, the TGI was determined as 26.5 µM in the test with SN12C renal; 6.76 µM with SR leukemia; 7.75 µM in the test on HCC-2998 colon; 5.92 µM in the test on SK-MEL-5 melanoma; 5.14 µM in the test with MALME-3M melanoma; 5.36 µM with HCT-15 colon. In addition, the TGI in the test on SF-268 CNS was found to be 48.3 µM; in the test on HL-60(TB) leukemia, 5.97 µM; in the test with NCI-H460 lung, 10.2 µM; in the test on HOP-92 NSCLC, 9.1 µM.
In the case of `COc1cc2c(cc1C)NC(=O)/C2=C\c1c[nH]c2ccccc12`, the GI50 in the test on SN12C renal is 11.6 µM; with SR leukemia, 8.91 µM; in the test with HCC-2998 colon, 21.7 µM; in the test on SK-MEL-5 melanoma, 14.9 µM; with MALME-3M melanoma, 15.3 µM; with HCT-15 colon, 7.16 µM. Moreover, the GI50 in the test with SF-268 CNS is 12 µM; in the test with HL-60(TB) leukemia, 15.9 µM; in the test with NCI-H460 lung it was 4.93 µM; in the test with HOP-92 NSCLC, 10.2 µM. Further, the TGI amounted to 27.7 µM in the test with SN12C renal; 42.6 µM in the test with SR leukemia; 71.1 µM with HCC-2998 colon; 30.5 µM with SK-MEL-5 melanoma; 42.3 µM in the test on MALME-3M melanoma; 25.4 µM with HCT-15 colon. Moreover, the TGI in the test with SF-268 CNS worked out at 36.3 µM; in the test on HL-60(TB) leukemia, 45.5 µM; in the test on NCI-H460 lung it was 41.9 µM; in the test on HOP-92 NSCLC it was 29.9 µM.
For the compound `COC(=O)C1C=CCON2CCc3c(n(S(=O)(=O)c4ccccc4)c4ccccc34)C12` (centres undefined), the TGI with SN12C renal is above 100 µM; with SR leukemia, above 100 µM; with HCC-2998 colon, above 100 µM; in the test on SK-MEL-5 melanoma it was above 58.4 µM; with MALME-3M melanoma it was above 100 µM; in the test with HCT-15 colon, above 72.9 µM. The TGI is above 100 µM in the test with SF-268 CNS, above 67.2 µM with HL-60(TB) leukemia, above 92.3 µM in the test with NCI-H460 lung and above 100 µM in the test with HOP-92 NSCLC.
In the case of `Nc1ncnc2c1ccn2[C@@H]1O[C@H]([C@H](O)c2ccc(Cl)c(F)c2)[C@@H](O)[C@H]1O`, the GI50 with SN12C renal was above 100 µM; in the test with SR leukemia, above 100 µM; with HCC-2998 colon, above 100 µM; in the test with SK-MEL-5 melanoma, 92.6 µM; in the test on MALME-3M melanoma, above 100 µM; with HCT-15 colon it was above 100 µM. The GI50 with SF-268 CNS, with HL-60(TB) leukemia, in the test with NCI-H460 lung and in the test on HOP-92 NSCLC was above 100 µM in each case. Besides, the TGI with SN12C renal, in the test on SR leukemia, with HCC-2998 colon, in the test on SK-MEL-5 melanoma, in the test with MALME-3M melanoma and with HCT-15 colon was above 100 µM in each case. The TGI with SF-268 CNS, with HL-60(TB) leukemia, in the test with NCI-H460 lung and in the test on HOP-92 NSCLC was above 100 µM in each case.
With `CCn1ccc(NS(=O)(=O)c2ccc(N)cc2)nc1=O`, the GI50 in the test with SN12C renal, in the test with SR leukemia, with HCC-2998 colon, with SK-MEL-5 melanoma, with MALME-3M melanoma and with HCT-15 colon was above 100 µM in each case. For the same compound, the GI50 in the test with SF-268 CNS, with HL-60(TB) leukemia, with NCI-H460 lung and with HOP-92 NSCLC was above 100 µM in each case. In addition, the TGI in the test on SN12C renal, in the test on SR leukemia, in the test with HCC-2998 colon, in the test on SK-MEL-5 melanoma, in the test on MALME-3M melanoma and in the test on HCT-15 colon was above 100 µM throughout. The TGI with SF-268 CNS, with HL-60(TB) leukemia, with NCI-H460 lung and in the test on HOP-92 NSCLC was above 100 µM in each case.
As to `C[C@@H](Oc1cc(-n2cnc3ccc(OC[C@@H](O)CO)cc32)sc1C(N)=O)c1ccccc1Cl`, the GI50 in the test with SN12C renal is 1.08 µM; in the test on SR leukemia it was 0.0743 µM; in the test on HCC-2998 colon, 0.0848 µM; with SK-MEL-5 melanoma, 0.326 µM; with MALME-3M melanoma it was 7.14 µM; in the test with HCT-15 colon, 1.88 µM. In addition, the GI50 with SF-268 CNS is 0.164 µM; in the test on HL-60(TB) leukemia, 0.0684 µM; with NCI-H460 lung it was 0.227 µM; in the test with HOP-92 NSCLC it was 0.765 µM. Also, the TGI in the test with SN12C renal was above 25 µM; in the test on HCC-2998 colon it was above 25 µM; in the test with SK-MEL-5 melanoma it was 5.14 µM; in the test on MALME-3M melanoma it was above 25 µM; in the test on HCT-15 colon, above 25 µM; in the test with SF-268 CNS it was above 25 µM. For the same compound, the TGI was 0.869 µM in the test on HL-60(TB) leukemia, above 25 µM in the test on NCI-H460 lung and above 16.4 µM in the test on HOP-92 NSCLC.
Regarding `O=C1C=CC2(C=C1)C[C@H](NC(=O)OCc1ccccc1)C(=O)O2`, the TGI was found to be 32.7 µM in the test with SN12C renal; 4.33 µM with SR leukemia; 40.8 µM with HCC-2998 colon; 47.9 µM in the test on SK-MEL-5 melanoma; 26.6 µM in the test with MALME-3M melanoma; 27 µM in the test with HCT-15 colon. Besides, the TGI is 32.3 µM with SF-268 CNS, 7.58 µM in the test with HL-60(TB) leukemia, 59.9 µM with NCI-H460 lung and 29.9 µM in the test on HOP-92 NSCLC.
On to `CCc1cccc(C)c1NC(=S)NC(=O)c1ccccc1C(=O)NC(=S)Nc1c(C)cccc1CC`, for which the TGI with SN12C renal, in the test with SR leukemia, in the test on HCC-2998 colon, in the test with SK-MEL-5 melanoma, with MALME-3M melanoma and with HCT-15 colon was above 100 µM each time. Further, the TGI is above 100 µM in the test with SF-268 CNS, above 100 µM with HL-60(TB) leukemia, above 100 µM in the test on NCI-H460 lung and 65.4 µM with HOP-92 NSCLC.
Consider `C[CH2][Sn]([CH2]C)([O]C(=O)c1ccc(OC)c(OC)c1OC)[O]C(=O)c1ccc(OC)c(OC)c1OC`, for which the GI50 with SN12C renal is 99.8 µM; in the test with SR leukemia it was 48 µM; in the test on HCC-2998 colon, above 100 µM; in the test on SK-MEL-5 melanoma, 99.2 µM; in the test with MALME-3M melanoma it was 21.2 µM; in the test on HCT-15 colon, 61.2 µM. Also, the GI50 was 28 µM with SF-268 CNS, above 63.5 µM in the test with HL-60(TB) leukemia, above 100 µM in the test with NCI-H460 lung and 21.8 µM in the test with HOP-92 NSCLC. The TGI was above 100 µM with SN12C renal; above 100 µM with SR leukemia; above 100 µM in the test on HCC-2998 colon; above 100 µM in the test on SK-MEL-5 melanoma; 50.6 µM in the test on MALME-3M melanoma; above 100 µM with HCT-15 colon. Moreover, the TGI in the test with SF-268 CNS is above 46.4 µM; in the test on HL-60(TB) leukemia, above 100 µM; in the test with NCI-H460 lung, above 100 µM; in the test on HOP-92 NSCLC, 49.6 µM.
